Consider 6 compounds from patent publication US20230405003A1, “APPLICATION OF THYMIDINE DERIVATIVE IN PREPARATION OF DRUGS” (ONQUALITY PHARMACEUTICALS CHINA LTD., priority 2020, published 2023).

In assay [1] the test system is 5-FU-induced diarrhea in Balb/c mice. Description: 5-FU-induced diarrhea mouse model (70 mg/kg/d i.p. for three days). In kind it is in vivo. Particulars: 5-FU 70 mg/kg/d i.p. three days; for Food Uptake / Survival Rate / Diarrhea Grade: 12 days; for Diarrhea Grade: score 0-4; for Δ % BW on Day 9: (BW day 0 − BW day 9)/BW day 0, ± SEM. How it is done: Male Balb/c mice (7-8 weeks, 23-25 g) were i.p. injected at a dose of 70 mg/kg/d, and the injection was performed for three days. The mice in the group of blank was injected with 0.9% NaCl, and evaluated for the effect by observing the change of diarrhea grade, food uptake, and weight change. The severity of diarrhea was scored in accordance with the following standards: 0: normal feces, 1: soft feces, 2: slightly wet, soft feces, 3: wet, unformed feces, with moderate coloration in perianal region, 4: watery feces with heavy coloration of hair in perianal region. The severity of diarrhea was evaluated by occurrence scores of various grades of diarrhea (Scores 0 to 4) and average score of diarrhea. […] The models were stable, and satisfied the experimental requirements.
The male Balb/c mice (7-8 weeks, 23-25 g) were fed and adapted for 1 week, and then divided into groups, with 10 mice in each group for administration test. 5-FU was dissolved in a 0.9% NaCl solution, and the mice in the model group and the treatment group were all i.p. injected at a dose of 70 mg/kg/d. The administration doses are shown in Table 6, and the modeling was completed in three days. While modeling of injection administration of 5-FU, the thymidine derivative or the combination of thymidine derivative and uridine derivative was administered by gavage, a series of compounds were dissolved in a PBS solution containing 5% DMSO+1% HPMC. The mice were daily observed for counting the diarrhea status, food uptake, weight change (A % BW) (the weight changes recorded in the table is the value on Day 9) and other information. After 12 days, the experiments were completed and statistically analyzed for the results.

In assay [2] the test system is hand-foot syndrome caused by Cytarabine in rats. Briefly: Rat model of hand-foot syndrome caused by cytarabine, gel application. Format: in vivo. Particulars: Cytarabine 120 mg/kg twice per day, 30 days. The method, then: (§1) After SD rats were fed and adapted for one week (about 200 g), the rats were divided into groups, with 10 rats in each group. Then, the rats were subject to gavage administration. Capecitabine was dissolved in a 1:1 mixed solution of castor oil and ethanol and diluted for three times with PBS buffer. After gavage, the rats were fixed with a fixed cylinder, and a gel of thymidine derivative (or a compounded gel of thymidine derivative and uridine derivative) was applied to double hind paws (about 1 cm*3 cm) of the rats in group of administration (the types and concentrations are shown in Table 4), and a blank gel was applied to the group of blank (as a blank control). After approximately 4 hours of application, the rats were released after 4 hours, wiped with clean water to remove any residual drug at the application site, and allowed back to the cage. The thymidine derivative gel (or the compounded gel of thymidine derivative and uridine derivative) was administered with gavage every day. The gavage and application tests are repeated daily until the group of blank has developed obvious hand-foot syndrome.
(§2) The effects of thymidine derivative or a combination of thymidine derivative and uridine derivative on the chemotherapeutic drug-induced hand-foot syndrome in a rat model were tested according to the method in Examples 30-40. At the same time, paws of rats after treatment with the drug were taken and observed for their inflammation by hematoxylin-eosin staining (HE) and immunohistochemical staining (IHC).
(§3) The test thymidine derivative or the combination of thymidine derivative and uridine derivative, as well as the final concentration of the test compounds were shown in Table 8. Table 8 lists the animal experiment combination of a chemotherapeutical drug and the thymidine derivative gel (or the compound gel of thymidine derivative and uridine derivative) and the corresponding experimental results (wherein, the data in the column of control rate=the occurrence rate of hand-foot syndrome in Group of blank—the occurrence rate of hand-foot syndrome in Group of administration).

Assay [3] concerns hand-foot syndrome caused by Doxorubicin in rats. Description: Rat model of hand-foot syndrome caused by doxorubicin, gel application. In kind it is in vivo. Particulars: Doxorubicin 7 mg/kg tail intravenous injection once every three days for 20 days, gel 3 wt%, 30 days. How it is done: as §1, §2, §3
Assay [4] has as its system hand-foot syndrome caused by Acelarin (NUC-1031) in rats. Description: Rat model of hand-foot syndrome caused by Acelarin (NUC-1031), gel application. In kind it is in vivo. Particulars: Acelarin (NUC-1031) 130 mg/kg intraperitoneal injection twice a week, gel 3 wt%, 30 days. How it is done: as §1, §2, §3
Assay [5] relates to human colon cancer cell HCT116 xenograft. Description: Effect of thymidine derivative gel on therapeutical effect of capecitabine, HCT116 xenograft nude mice. In kind it is in vivo, mouse. Particulars: oral capecitabine 1.5 mmol/kg, 0.5% or 2% T1 gel on the back once per day, 14 days. The method, then:
A BALB/C nude mouse (human colon cancer cell HCT116 xenograft) model was established. After the model was stable, the model mice were divided into four groups (in which the average tumor size of each of the 4 groups was kept as consistent as possible). Except the blank group (containing 5 mice), there were 10 mice in each group, which were subject to gavage and application experiments.
Capecitabine was dissolved in a mixed solution of castor oil:ethanol=1:1 (volume ratio). Prior to gavage, the mixture was diluted with PBS to the desired concentration (diluted for about 3 times with PBS solution). […]
A: Group of blank: 5 mice with tumors, no gavage and no drug application; B: blank group: 10 mice with tumors, oral gavage with capecitabine (1.5 mmol/kg), application with blank gel on the back (once per day for 14 days); C: 0.5% T1 group: 10 mice with tumors, oral gavage of capecitabine, application with 0.5% T1 gel (administration method and frequency are the same as those in group B); D: 2% T1 gel group: 10 mice with tumors, oral gavage of capecitabine, application of 2% T1 gel (administration method and frequency are the same as those in group B). […] The tumor size was measured and recorded every 2 days. After 14 days of the experiment, the mice were dissected to take out the tumor, which was weighed and recorded.

For the compound `CC(=O)OC[C@H]1O[C@@H](n2cc(C)c(=O)[nH]c2=O)C[C@@H]1O` [T3], in assay [1] (50 mpk BID PO), the “Food Uptake” value is on record as 109, the “Survival Rate” value worked out at 70%, the “Diarrhea Grade” value was determined as 1.6 and the “Δ % BW on Day 9” value is 8.4% ± 3.2.

With `COc1ccc2cc([C@H](C)C(=O)OC[C@H]3O[C@@H](n4cc(C)c(=O)[nH]c4=O)C[C@@H]3O)ccc2c1` [T25], the “Control Rate Forepaws” value in assay [2] (gel 3 wt%) is listed as 42.86%; in assay [3] it was 37.50%; in assay [4], 57.14%. In addition, the “Control Rate Hindpaws” value in assay [2] (gel 3 wt%) is 57.14%; in assay [3], 62.50%; in assay [4] it was 42.86%.

For the compound `CC(=O)O[C@H]1C[C@H](n2cc(C)c(=O)[nH]c2=O)O[C@@H]1CO` [T2], in assay [1] (75 mpk BID PO), the “Food Uptake” value came to 123, the “Survival Rate” value came to 100%, the “Diarrhea Grade” value was 1.4 and the “Δ % BW on Day 9” value is reported as 6.6% ± 3.1.

Consider `CC(=O)OCC1OC(n2cc(C)c(=O)[nH]c2=O)CC1OC(C)=O` (stereo not drawn) [T1], for which the “tumor volume with T1 gel versus blank gel” value in assay [5] was “close to or slightly smaller than that of Group of blank gel”. Besides, in assay [1] (37 mpk BID PO), the “Food Uptake” value came out at 155, the “Survival Rate” value turned out to be 100%, the “Diarrhea Grade” value is reported as 1.4 and the “Δ % BW on Day 9” value is 4.3% ± 3.7. For the same compound, in assay [1] (75 mpk BID PO), the “Food Uptake” value is recorded as 100, the “Survival Rate” value is 80%, the “Diarrhea Grade” value is recorded as 1.3 and the “Δ % BW on Day 9” value was 3.8% ± 1.6. In addition, in assay [1] (150 mpk BID PO), the “Food Uptake” value amounted to 89, the “Survival Rate” value was 80%, the “Diarrhea Grade” value is listed as 1.5 and the “Δ % BW on Day 9” value is 16.3% ± 6.5.

As to `Cc1cn([C@H]2C[C@H](O)[C@@H](COC(=O)[C@H](C)c3ccc(CC(C)C)cc3)O2)c(=O)[nH]c1=O` [T32], the “Control Rate Forepaws” value in assay [2] (gel 2 wt%) came to 33.33%; in assay [4], 50%. The entries for the “Control Rate Hindpaws” value in assay [2] (gel 2 wt%) and in assay [4] were 33.33% and 62.50%, respectively.

`CC1=C(CC(=O)OC[C@H]2O[C@@H](n3cc(C)c(=O)[nH]c3=O)C[C@@H]2O)c2cc(F)ccc2/C1=C\c1ccc([S+](C)[O-])cc1` (stereo partly drawn) [T40]: in assay [4], the “Control Rate Forepaws” value was found to be 50% and the “Control Rate Hindpaws” value turned out to be 62.50%.
